Laboratory results: patent US6894050B2, “5-HT receptor ligands and uses thereof” (Pfizer Inc., priority 2001, dated 2005)
Structures can show the parent of a compound that is named as a salt. Blank lines part the entries; values can stand above or below the compound they belong to.

Tests used:
[1] = tested on: anaesthetised rabbit model of sexual arousal; assay: Pelvic nerve-stimulated genital blood flow in the anaesthetised rabbit model of sexual arousal; format: in vivo; settings: 5 mg/kg s.c.; for Compound-induced potentiation of stimulated vaginal blood flow: %
Procedure: Female New Zealand rabbits (˜2.5 kg) were pre-medicated with a combination of Medetomidine (Domitor®) 0.5 ml/kg intramuscularly (i.m.), and Ketamine (Vetalar®) 0.25 ml/kg i.m. whilst maintaining oxygen intake via a face mask. The rabbits were tracheotomised using a Portex™ uncuffed endotracheal tube 3 ID (internal diameter), connected to ventilator and maintained at a ventilation rate of 30-40 breaths per minute, with an approximate tidal volume of 18-20 ml, and a maximum airway pressure of 10 cm H2O. Anaesthesia was then switched to Isoflurane® and ventilation continued with O2 at 2 l/min. The right marginal ear vein was cannulated using a 23G or 24G catheter, and Lactated Ringer solution perfused at 0.5 ml/min. The rabbit was maintained at 3% Isoflurane® during invasive surgery, dropping to 2% for maintenance anaesthesia.
The left groin area of the rabbit was shaved and a vertical incision was made approximately 5 cm in length along the thigh. The femoral vein and artery were exposed, isolated and then cannulated with a PVC catheter (17G) for the infusion of drugs and compounds. Cannulation was repeated for the femoral artery, inserting the catheter to a depth of 10 cm to ensure that the catheter reached the abdominal aorta. This arterial catheter was linked to a Gould system to record blood pressure. Samples for blood gas analysis were also taken via the arterial catheter. Systolic and diastolic pressures were measured, and the mean arterial pressure calculated using the formula (diastolic×2+systolic)÷3. Heart rate was measured via the pulse oxymeter and Po-ne-mah data acquisition software system (Ponemah Physiology Platform, Gould Instrument Systems Inc).
A ventral midline incision was made into the abdominal cavity. The incision was about 5 cm in length just above the pubis. The fat and muscle was bluntly dissected away to reveal the hypogastric nerve which runs down the body cavity. It was essential to keep close to the side curve of the pubis wall in order to avoid damaging the femoral vein and artery, which lie above the pubis. The sciatic and pelvic nerves lie deeper and were located after further dissection on the dorsal side of the rabbit. Once the sciatic nerve is identified, the pelvic nerve was easily located. The term pelvic nerve is loosely applied; anatomy books on the subject fail to identify the nerves in sufficient detail. However, stimulation of the nerve causes an increase in vaginal and clitoral blood flow, and innervation of the pelvic region. The pelvic nerve was freed away from surrounding tissue and a Harvard bipolar stimulating electrode was placed around the nerve. The nerve was slightly lifted to give some tension, then the electrode was secured in position. Approximately 1 ml of light paraffin oil was placed around the nerve and electrode. This acts as a protective lubricant to the nerve and prevents blood contamination of the electrode. The electrode was connected to a Grass S88 Stimulator. The pelvic nerve was stimulated using the following parameters:—5V, pulse width 0.5 ms, duration of stimulus 10 seconds and a frequency range of 2 to 16 Hz. Reproducible responses were obtained when the nerve was stimulated every 15-20 minutes. A frequency response curve was determined at the start of each experiment in order to determine the optimum frequency to use as a sub-maximal response, normally 4 Hz. A ventral midline incision was made, at the caudal end of the pubis, to expose the pubic area. Connective tissue was removed to expose the tunica of the clitoris, ensuring that the wall was free from small blood vessels. The external vaginal wall was also exposed by removing any connective tissue. One laser Doppler flow probe was inserted 3 cm into the vagina, so that half the probe shaft was still visible. A second probe was positioned so that it lay just above the external clitoral wall. The position of these probes was then adjusted until a signal was obtained. […]

[2] = molecular target: T1, 5-HT2c receptor (5-HT2c expressed NIH 3T3 cells) (UniProt P28335); assay: Functional Assay (FLIPR calcium fluorescence, Fluo 4-AM); format: cell-based
T1 sequence (P28335 1-458): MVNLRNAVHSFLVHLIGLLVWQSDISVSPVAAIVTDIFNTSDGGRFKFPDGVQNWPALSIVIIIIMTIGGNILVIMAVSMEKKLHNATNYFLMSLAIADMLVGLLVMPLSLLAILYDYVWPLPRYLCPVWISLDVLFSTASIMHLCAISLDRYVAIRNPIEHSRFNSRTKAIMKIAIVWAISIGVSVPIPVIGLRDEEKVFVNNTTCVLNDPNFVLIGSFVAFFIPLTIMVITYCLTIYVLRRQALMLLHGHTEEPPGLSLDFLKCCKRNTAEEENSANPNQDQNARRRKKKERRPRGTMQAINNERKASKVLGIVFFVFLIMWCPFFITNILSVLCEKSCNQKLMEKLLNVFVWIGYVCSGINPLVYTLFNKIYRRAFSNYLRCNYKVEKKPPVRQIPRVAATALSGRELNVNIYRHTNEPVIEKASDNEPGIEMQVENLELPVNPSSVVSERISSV
Procedure: […] Forty eight (48) hrs later the cells were loaded with the calcium sensitive dye, Fluo 4-AM (4 μM dissolved in DMSO containing pluronic acid) in serum free DMEM in the presence of probenicid (2.5 mM) for 75 minutes at 37° C. in a CO2 incubator. Unincorporated dye was removed by washing 3 times with a HEPES-buffered saline containing probenicid (2.5 mM) using a Skatron™ cell washer (final volume 30 μL).
Test compound additions were made simultaneously to all 384 wells after 20 seconds of baseline recording. Concentration-response curves were generated using Graphpad Prism™ (available from GraphPad Software, Inc., San Diego, Calif.) and agonist efficacies were generated as % of the response to 10 μM 5-HT (considered as 100%).

SMILES: COCC[C@H](CC1(C(=O)NCCCc2ccc(Cl)cc2)CCCC1)C(=O)O (as salt: sodium)
melting point: 214 to 216 °C

SMILES: O=C1Nc2cc(Cl)c(Cl)cc2N2CCNCC12 (stereo not shown) [8,9-dichloro-2,3,4,4a-tetrahydro-1H-pyrazino[1,2-a]quinoxalin-5(6H)-one]
time after s.c. dosing at which potentiation was significant [1]: 30 min | time potentiation remained elevated [1]: circa 1 hr | effect on pelvic-nerve stimulated (PNS) increases in vaginal and clitoral blood flow ([1]; anaesthetised rabbit): potent enhancer | potentiation of pelvic nerve stimulated increases in genital blood flow ([1]; anaesthetised rabbit): circa 35% | effect on basal genital blood flow in the absence of PNS ([1]; no pelvic nerve stimulation): no effect | Pelvic nerve stimulated increases in vaginal blood flow ([1]; 15 min after injection): 292 Laser Doppler units | Unstimulated vaginal blood flow ([1]; 15 min after injection): 185 Laser Doppler units | Compound-induced potentiation of stimulated vaginal blood flow ([1]; 15 min after injection): 21% | Pelvic nerve stimulated increases in vaginal blood flow ([1]; 30 min after injection): 325 Laser Doppler units | Unstimulated vaginal blood flow ([1]; 30 min after injection): 162 Laser Doppler units | Compound-induced potentiation of stimulated vaginal blood flow ([1]; 30 min after injection): 34% | Pelvic nerve stimulated increases in vaginal blood flow ([1]; 45 min after injection): 295 Laser Doppler units | Unstimulated vaginal blood flow ([1]; 45 min after injection): 150 Laser Doppler units | Compound-induced potentiation of stimulated vaginal blood flow ([1]; 45 min after injection): 22% | Pelvic nerve stimulated increases in vaginal blood flow ([1]; 60 min after injection): 325 Laser Doppler units | Unstimulated vaginal blood flow ([1]; 60 min after injection): 127 Laser Doppler units | Compound-induced potentiation of stimulated vaginal blood flow ([1]; 60 min after injection): 34% | Pelvic nerve stimulated increases in vaginal blood flow ([1]; 75 min after injection): 252 Laser Doppler units | Unstimulated vaginal blood flow ([1]; 75 min after injection): 137 Laser Doppler units | Compound-induced potentiation of stimulated vaginal blood flow ([1]; 75 min after injection): 4% | Pelvic nerve stimulated increases in vaginal blood flow ([1]; 90 min after injection): 247 Laser Doppler units | Unstimulated vaginal blood flow ([1]; 90 min after injection): 132 Laser Doppler units | Compound-induced potentiation of stimulated vaginal blood flow ([1]; 90 min after injection): 2%

SMILES: Cc1cc(C)cc(COc2cncc(N3CCNCC3)n2)c1 [Example 1-AA, 6′-(3,5-Dimethyl-benzyloxy)-3,4,5,6-tetrahydro-2H-[1,2′]bipyrazinyl]
functional behaviour at 5-HT2c [2]: acted as an antagonist

SMILES: C[C@@H](Oc1cncc(N2CCNCC2)n1)c1ccccc1 [Example 1-AE, 6′-[(1R)-Phenyl-ethoxy]-3,4,5,6-tetrahydro-2H-[1,2′]bipyrazinyl]
functional behaviour at 5-HT2c [2]: acted as an antagonist

SMILES: C[C@H](Oc1cncc(N2CCNCC2)n1)c1ccccc1 [Example 1-AF, 6′-[(1S)-Phenyl-ethoxy]-3,4,5,6-tetrahydro-2H-[1,2′]bipyrazinyl]
functional behaviour at 5-HT2c [2]: acted as an antagonist

SMILES: C[C@@H]1CNCCN1c1cncc(OCc2ccccc2F)n1 [Example 1-AH, 6′-(2-Fluoro-benzyloxy)-(2R)-methyl-3,4,5,6-tetrahydro-2H-[1,2′]bipyrazinyl]
functional behaviour at 5-HT2c [2]: acted as an antagonist

SMILES: C[C@H]1CN(c2cncc(OCc3cccc(F)c3)n2)CCN1 [Example 1-AL, 6′-(3-Fluoro-benzyloxy)-(3S)-methyl-3,4,5,6-tetrahydro-2H-[1,2′]bipyrazinyl]
functional behaviour at 5-HT2c [2]: acted as an antagonist

SMILES: Clc1cccc(COc2cncc(N3CCNCC3)n2)c1Cl [Example 1-AO, 6′-(2,3-Dichloro-benzyloxy)-3,4,5,6-tetrahydro-2H-[1,2′]bipyrazinyl]
functional behaviour at 5-HT2c [2]: acted as an antagonist

SMILES: Cl.Clc1ccc(CNc2cncc(N3CCNCC3)n2)cc1 [Example 4-C, (4-Chloro-benzyl)-(3,4,5,6-tetrahydro-2H-[1,2′]bipyrazinyl-6′-yl)-amine hydrochloride salt]
functional behaviour at 5-HT2c [2]: acted as an antagonist

SMILES: Cl.Fc1ccc(CNc2cncc(N3CCNCC3)n2)cc1 [Example 4-D, (4-Fluoro-benzyl)-(3,4,5,6-tetrahydro-2H-[1,2′]bipyrazinyl-6′-yl)-amine hydrochloride salt]
functional behaviour at 5-HT2c [2]: acted as an antagonist

Second part, the compound after the results:

functional behaviour at 5-HT2c [2]: acted as an antagonist
SMILES: CN1CCN(c2cncc(OCc3cccc(Cl)c3)n2)CC1 [Example 1-AS, 6′-(3-Chloro-benzyloxy)-4-methyl-3,4,5,6-tetrahydro-2H-[1,2′]bipyrazinyl]

functional behaviour at 5-HT2c [2]: acted as an antagonist
SMILES: CN1CCN(c2cncc(OCc3cccc(F)c3)n2)CC1 [Example 1-AT, 6′-(3-Fluoro-benzyloxy)-4-methyl-3,4,5,6-tetrahydro-2H-[1,2′]bipyrazinyl]

functional behaviour at 5-HT2c [2]: acted as an antagonist
SMILES: Clc1cc(Cl)cc(COc2cncc(N3CCNCC3)n2)c1 [Example 1-N, 6′-(3,5-Dichloro-benzyloxy)-3,4,5,6-tetrahydro-2H-[1,2′]bipyrazinyl]

functional behaviour at 5-HT2c [2]: acted as an antagonist
SMILES: Clc1ccc(COc2cncc(N3CCNCC3)n2)cc1 [Example 1-R, 6′-(4-Chloro-benzyloxy)-3,4,5,6-tetrahydro-2H-[1,2′]bipyrazinyl]

functional behaviour at 5-HT2c [2]: acted as an antagonist
SMILES: C[C@@H]1CN(c2cncc(OCc3cccc(Cl)c3)n2)CCN1 [Example 1-U, 6′-(3-Chloro-benzyloxy)-(3R)-methyl-3,4,5,6-tetrahydro-2H-[1,2′]bipyrazinyl]

activity at 10 μM ([2]; 10 μM): no activity
SMILES: C[C@@H]1CN(c2cncc(OCc3cccc(Cl)c3)n2)C[C@H](C)N1 [Example 1-V, 6′-(3-Chloro-benzyloxy)-(3R,5S)-dimethyl-3,4,5,6-tetrahydro-2H-[1,2′]bipyrazinyl]

functional behaviour at 5-HT2c [2]: acted as an antagonist
SMILES: FC(F)(F)c1cc(COc2cncc(N3CCNCC3)n2)cc(C(F)(F)F)c1 [Example 1-W, 6′-(3,5-Bis-trifluoromethyl-benzyloxy)-3,4,5,6-tetrahydro-2H-[1,2′]bipyrazinyl]

functional behaviour at 5-HT2c [2]: acted as an antagonist
SMILES: CC(Oc1cncc(N2CCNCC2)n1)c1cc(F)cc(F)c1 (stereo not shown) [Example 1-Z, 6′-[1-(3,5-Difluoro-phenyl)-ethoxy]-3,4,5,6-tetrahydro-2H-[1,2′]bipyrazinyl]
